Values quoted from earlier work as cited in patent US7892523B2, “Cosmetic process for the treatment of the skin with sun-protection products and sun-protection products combination” (Coty B.V., priority 2004, dated 2011).

Conditions: known RPFs of standard antioxidants / usual formulations

Compound | radical protection factor (RPF)
CC(=O)OC/C=C(C)/C=C/C=C(C)/C=C/C1=C(C)CCCC1(C)C [all-trans-retinol acetate] | 196 ×10^14 radicals/mg
CC1=C(/C=C/C(C)=C/C=C/C(C)=C/CO)C(C)(C)CCC1 [all-trans-retinol] | 827 ×10^14 radicals/mg
Cc1c(C)c2c(c(C)c1O)CCC(C)(CCCC(C)CCCC(C)CCCC(C)C)O2 (racemic) [DL-α-tocopherol] | 41,200 ×10^14 radicals/mg
CC(=O)Oc1c(C)c(C)c2c(c1C)CCC(C)(CCC[C@H](C)CCC[C@H](C)CCCC(C)C)O2 (stereo partly drawn) [α-tocopherol acetate] | 48 ×10^14 radicals/mg
